For orientation: EC50 means the midpoint of the concentration-response curve.

Results on one molecule are retold here after patent publication US7138426B2, “Estrogen receptor modulators” (Merck & Co., Inc., priority 2003, dated 2006).

The subject of the experiment is MCF-7 cells. Description: MCF-7 Estrogen Dependent Proliferation Assay. It counts as cell-based. The settings on record: Homo sapiens, MCF7, addition to Estrogen Depleted Media (EDM), read-out: EC50 of growth stimulation of MCF-7 cells. The text has this: MCF-7 cells (ATCC #HTB-22) are human mammary gland adenocarcinoma cells that require estrogen for growth. The growth media (GM) for the MCF-7 cells is Minimum Essential Media (without phenol red) supplemented with fetal bovine serum (FBS) to 10%. The FBS serves as the sole source of estrogen and this GM supports the full growth of the cells and is used for the routine growth of the cell cultures. When MCF-7 cells are placed in a media in which 10% Charcoal-Dextran treated fetal bovine serum (CD-FBS) is substituted for FBS, the cells will cease to divide but will remain viable. […] The addition of estradiol to EDM stimulates the growth of the MCF-7 cells in a dose dependent manner with an EC50 of 2 pM. Growing MCF-7 cells are washed several times with EDM and the cultures then maintained in EDM for a minimum of 6 days in order to deplete the cells of endogenous estrogen. […] At this point, the culture supernatants are aspirated, the cells washed 2× with PBS, the wash solution aspirated and the protein content of each well determined. Each drug dilution is evaluated on a minimum of 5 wells and the range of dilution of the test compounds in the assay is 0.001 nM to 1000 nM. […] The assay is terminated at day 8–10 when the appropriate controls reach 80–90% confluency and the protein content of each well is determined as above.

For `C[C@]12CC[C@@H]3c4ccc(O)cc4CC[C@H]3[C@@H]1CC[C@@H]2O` [estradiol], the 50% effective concentration (EC50) is 2 pM.
